The text below walks through data of patent US20050107423A1, “Quinolone antibacterial agents” (priority 2003, published 2005).

In brackets after ≈: the same amount, converted by molar mass.

Common to all, as to experiment: Antibacterial assay, microtitration MIC (Test A)
Type in all cases: cell-based

For assay [1], the system named is E. faecalis MGH-2. As to conditions: strain MGH-2; for MIC: Enterococcus faecalis, MGH2, Gram Positive Bacteria, read-out: Minimum Inhibitory Concentrations E. faecalis MGH-2. Here is the method: (§1) The compounds of the present invention were tested against an assortment of Gram-negative and Gram-positive organisms using standard microtitration techniques (Cohen et. al., Antimicrob., 1985;28:766; Heifetz, et. al., Antimicrob., 1974;6:124). The results of the evaluation are shown in Tables 1A and B, wherein “-” means no data.

For assay [2], the system named is S pyogenes C203. As to conditions: Gram Positive Bacteria; strain C203; read-out: Minimum Inhibitory Concentrations S pyogenes C203. Here is the method: as §1
The test system of assay [3] is S. aureus UC-76. The conditions noted are these: Staphylococcus aureus, UC76, Gram Positive Bacteria; strain UC-76; read-out: Minimum Inhibitory Concentrations S. aureus UC-76. Here is the method: as §1
Assay [4] deals with S. pneumo SV-1. The conditions noted are these: Gram Positive Bacteria; strain SV-1; read-out: Minimum Inhibitory Concentrations S. pneumo SV-1. The protocol: as §1
In assay [5] the test system is E. coli EC-2549. The conditions noted are these: Escherichia coli, EC2549, Gram Negative Bacteria; strain EC-2549; read-out: Minimum Inhibitory Concentrations E. coli EC-2549. Here is the method:
as §1

The test system of assay [6] is H. influenzae HI-3542. As to conditions: Haemophilus influenzae, HI3542, Gram Negative Bacteria; strain HI-3542; read-out: Minimum Inhibitory Concentrations H. influenzae HI-3542. Here is the method: as §1
For assay [7], the system named is M. catarrhalis BC-3531. As to conditions: Moraxella catarrhalis, BC3531, Gram Negative Bacteria; strain BC-3531; read-out: Minimum Inhibitory Concentrations M. catarrhalis BC-3531. Here is the method: as §1

As for `COc1c(N2CC3CC(O)C(O)C3C2)c(F)cc2c(=O)c(C(=O)O)cn(C3CC3)c12` (stereo not drawn), the MIC amounted to 0.25 µg/mL (≈ 0.597 µM) in assay [1], 0.25 µg/mL (≈ 0.597 µM) in assay [2], 0.008 µg/mL (≈ 0.0191 µM) in assay [3] and 0.25 µg/mL (≈ 0.597 µM) in assay [4].
Take `COc1c(N2CCC(C(CO)CO)C2)c(F)cc2c(=O)c(C(=O)O)cn(C3CC3)c12` (stereo not drawn) [drawing 340]: the MIC in assay [1] is 0.03 µg/mL (≈ 0.0714 µM); in assay [2], 0.06 µg/mL (≈ 0.143 µM); in assay [3] it was 0.004 µg/mL (≈ 0.00951 µM); in assay [4] it was 0.03 µg/mL (≈ 0.0714 µM).
`Cc1c(N2CCC(CCO)C2)c(F)cc2c(=O)c(C(=O)O)cn(C3CC3)c12` (stereo not drawn) [drawing 341]: the MIC in assay [1] came out at 2 µg/mL (≈ 5.34 µM); in assay [2], 0.06 µg/mL (≈ 0.16 µM); in assay [3] it was 0.125 µg/mL (≈ 0.334 µM); in assay [4], 0.03 µg/mL (≈ 0.0801 µM).
On the same counts, the results for `COc1c(N2CCC(CO)C2)c(F)cc2c(=O)c(C(=O)O)cn(C3CC3)c12` (stereo not drawn) [drawing 342] are 0.06 µg/mL (≈ 0.159 µM), 0.06 µg/mL (≈ 0.159 µM), 0.00403 µg/mL (≈ 0.0107 µM) and 0.06 µg/mL (≈ 0.159 µM).
Consider `Cc1c(N2CCC(C(O)C(F)F)C2)c(F)cc2c(=O)c(C(=O)O)cn(C3CC3)c12` (stereo not drawn) [drawing 343], for which the MIC in assay [1] is 0.06 µg/mL (≈ 0.146 µM); in assay [2], 0.125 µg/mL (≈ 0.305 µM); in assay [3], 0.004 µg/mL (≈ 0.00975 µM); in assay [4] it was 0.06 µg/mL (≈ 0.146 µM).
With `COc1c(N2CCC(C(O)C(F)F)C2)c(F)cc2c(=O)c(C(=O)O)cn(C3CC3)c12` (stereo not drawn) [drawing 349], the MIC in assay [1] was 0.125 µg/mL (≈ 0.293 µM); in assay [2] it was 0.25 µg/mL (≈ 0.586 µM); in assay [3], 0.008 µg/mL (≈ 0.0188 µM); in assay [4], 0.06 µg/mL (≈ 0.141 µM).
On the same counts, the results for `COc1c(N2CCC(C(O)CO)C2)c(F)cc2c(=O)c(C(=O)O)cn(C3CC3)c12` (stereo not drawn) [drawing 355] are 0.03 µg/mL (≈ 0.0738 µM), 0.03 µg/mL (≈ 0.0738 µM), 0.002 µg/mL (≈ 0.00492 µM) and 0.03 µg/mL (≈ 0.0738 µM).
On the same counts, the results for `COc1c(N2CCC(C3(O)CC3)C2)c(F)cc2c(=O)c(C(=O)O)cn(C3CC3)c12` (stereo not drawn) [drawing 360] are 0.125 µg/mL (≈ 0.311 µM), 0.25 µg/mL (≈ 0.621 µM), 0.015 µg/mL (≈ 0.0373 µM) and 0.125 µg/mL (≈ 0.311 µM).
On the same counts, the results for `COc1c(N2CCC(C(O)C3(O)CC3)C2)c(F)cc2c(=O)c(C(=O)O)cn(C3CC3)c12` (stereo not drawn) [drawing 361] are 0.5 µg/mL (≈ 1.16 µM), 0.25 µg/mL (≈ 0.578 µM), 0.015 µg/mL (≈ 0.0347 µM) and 0.25 µg/mL (≈ 0.578 µM).
For the compound `Cc1c(N2CCC(C(O)C(F)(F)F)C2)c(F)cc2c(=O)c(C(=O)O)cn(C3CC3)c12` (stereo not drawn) [drawing 363], the “Minimum Inhibitory Concentrations E. faecalis MGH-2” value in assay [1] (Gram Positive Bacteria) amounted to 0.25 µg/mL. The MIC in assay [2] turned out to be 0.5 µg/mL (≈ 1.17 µM); in assay [3], 0.0015 µg/mL (≈ 0.0035 µM); in assay [4], 0.25 µg/mL (≈ 0.584 µM).
As for `Cc1c(N2CCC(C(F)(F)CO)C2)c(F)cc2c(=O)c(C(=O)O)cn(C3CC3)c12` (stereo not drawn) [drawing 368], the MIC in assay [1] amounted to 0.125 µg/mL (≈ 0.305 µM); in assay [2], 0.25 µg/mL (≈ 0.609 µM); in assay [3] it was 0.008 µg/mL (≈ 0.0195 µM); in assay [4], 0.06 µg/mL (≈ 0.146 µM).
For `Cc1c(N2CCC(C(O)C(C)(F)F)C2)c(F)cc2c(=O)c(C(=O)O)cn(C3CC3)c12` (stereo not drawn) [drawing 369] the same measures were 0.25 µg/mL (≈ 0.589 µM), 0.25 µg/mL (≈ 0.589 µM), 0.004 µg/mL (≈ 0.00942 µM) and 0.125 µg/mL (≈ 0.295 µM).
On the same counts, the results for `COCC(O)C1CCN(c2c(F)cc3c(=O)c(C(=O)O)cn(C4CC4)c3c2C)C1` (stereo not drawn) [drawing 370] are 1 µg/mL (≈ 2.47 µM), 1 µg/mL (≈ 2.47 µM), 0.06 µg/mL (≈ 0.148 µM) and 0.5 µg/mL (≈ 1.24 µM).
On the same counts, the results for `COc1c(N2CCC(CO)(CO)C2)c(F)cc2c(=O)c(C(=O)O)cn(C3CC3)c12` [drawing 377] are 0.5 µg/mL (≈ 1.23 µM), 0.25 µg/mL (≈ 0.615 µM), 0.06 µg/mL (≈ 0.148 µM) and 0.25 µg/mL (≈ 0.615 µM).
With `O=C(O)c1cn(-c2ccc(F)cc2F)c2nc(N3C[C@@H](CO)[C@@H](CO)C3)c(F)cc2c1=O` [drawing 398], the MIC was determined as 0.5 µg/mL (≈ 1.11 µM) in assay [1], 0.5 µg/mL (≈ 1.11 µM) in assay [2], 0.06 µg/mL (≈ 0.134 µM) in assay [3] and 0.5 µg/mL (≈ 1.11 µM) in assay [4].
Take `Cc1c(N2CC(CO)C(C)(C)C2)c(F)cc2c(=O)c(C(=O)O)cn(C3CC3)c12` (stereo not drawn) [drawing 418]: the MIC came to 0.06 µg/mL (≈ 0.154 µM) in assay [5], 0.015 µg/mL (≈ 0.0386 µM) in assay [6] and 0.008 µg/mL (≈ 0.0206 µM) in assay [7].
For `Cc1c(N2CC(CO)C3(CC3)C2)c(F)cc2c(=O)c(C(=O)O)cn(C3CC3)c12` (stereo not drawn) [drawing 419] the same measures were 0.125 µg/mL (≈ 0.323 µM), 0.015 µg/mL (≈ 0.0388 µM) and 0.008 µg/mL (≈ 0.0207 µM).
For `COc1c(N2CC(CO)C3(CC3)C2)c(F)cc2c(=O)c(C(=O)O)cn(C3CC3)c12` (stereo not drawn) [drawing 420], the MIC is 0.06 µg/mL (≈ 0.149 µM) in assay [5], 0.008 µg/mL (≈ 0.0199 µM) in assay [6] and 0.008 µg/mL (≈ 0.0199 µM) in assay [7].
